Measurements taken from US6683211B1, “Phenyl-propargylether derivatives” (priority 2000, dated 2004).

Legend:
Type in all cases: in vivo
Phytophthora [1] = assay: D-2a) residual-protective action against Phytophthora on tomato plants; conditions: Phytophthora, 120 h; 200 ppm; test D-2a) residual-protective, evaluated after 5 days, read-out: inhibit fungal infestations
Protocol: (§1) D-2: Action Against Phytophthora on Tomato Plants
(§2) a) Residual-protective Action
After a cultivation period of 3 weeks, tomato plants are sprayed with a spray mixture (0.02% active ingredient) prepared from a wettable powder formulation of the test compound. After 48 hours, the treated plants are infected with a sporangia suspension of the fungus. Fungus infestation is evaluated after incubation of the infected plants for 5 days at 90-100% relative humidity and +20° C.

Phytophthora [2] = assay: D-3a) residual-protective action against Phytophthora on potato plants; conditions: Phytophthora, 96 h; 200 ppm; test D-3a) residual-protective; potato plants (Bintje); evaluated after 4 days; read-out: inhibit fungal infestations
Protocol: (§3) D-3: Action Against Phytophthora on Potato Plants
as §2
2-3 week old potato plants (Bintje variety) are sprayed with a spray mixture (0.02% active ingredient) prepared from a wettable powder formulation of the test compound. After 48 hours, the treated plants are infected with a sporangia suspension of the fungus. Fungus infestation is evaluated after incubation of the infected plants for 4 days at 90-100% relative humidity and +20° C.

Phytophthora [3] = assay: D-3b) systemic action against Phytophthora on potato plants; conditions: Phytophthora, 96 h; 200 ppm; test D-3b) systemic (soil watering); potato plants (Bintje); evaluated after 4 days; read-out: inhibit fungal infestations
Protocol: as §3
2-3 week old potato plants (Bintje variety) are watered with a spray mixture (0.02% active ingredient based on the volume of the soil) prepared from a wettable powder formulation of the test compound. […] After 48 hours, the treated plants are infected with a sporangia suspension of the fungus. Fungus infestation is evaluated after incubation of the infected plants for 4 days at 90-100% relative humidity and +20° C. Fungal infestation is effectively controlled with compounds of Tables 1 to 35. Compounds E1.003, E1.004, E1.009, E1.011, E1.012, E1.019, E1.020, E1.021, E1.022, E1.025, E1.031, E1.032, E1.033, E1.038, E1.045, E1.049, E1.050, E1.053, E1.085, E1.089, E1.090, E1.091, E1.102, E1.110, E1.112, E1.121, E1.125, E1.129 at 200 ppm inhibit fungal infestations in both tests D-3a) and D-3b) by 80-100%.

Phytophthora [4] = assay: D-2b) systemic action against Phytophthora on tomato plants; conditions: Phytophthora, 96 h; 200 ppm; test D-2b) systemic (soil watering), evaluated after 4 days, read-out: inhibit fungal infestations
Protocol: as §1
After a cultivation period of 3 weeks, tomato plants are watered with a spray mixture (0.02% active ingredient based on the volume of the soil) prepared from a wettable powder formulation of the test compound. […] After 96 hours, the treated plants are infected with a sporangia suspension of the fungus. Fungus infestation is evaluated after incubation of the infected plants for 4 days at 90-100% relative humidity and +20° C. […] Compounds E1.003, E1.004, E1.009, E1.011, E1.012, E1.014, E1.018, E1.019, E1.020, E1.021, E1.022, E1.023, E1.025, E1.031, E1.032, E1.033, E1.038, E1.040, E1.044, E1.045, E1.049, E1.050, E1.053, E1.055, E1.057, E1.064, E1.085, E1.089, E1.090, E1.091, E1.102, E1.08, E1.110, E1.112, E1.121, E1.125, E1.129, E1.139 and E1.141 at 200 ppm inhibit fungal infestations in both tests D-2a) and D-2b) by 80-100%.

Plasmopara viticola [5] = assay: D-1b) residual-curative action against Plasmopara viticola on vines; conditions: Plasmopara viticola, 144 h; 200 ppm; test D-1b) residual-curative; vine seedlings; evaluated 6 days after infection; read-out: inhibit fungal infestations
Protocol: (§4) D-1: Action Against Plasmopara viticola on Vines
b) Residual-curative Action
Vine seedlings are infected at the 4- to 5-leaf stage with a sporangia suspension of the fungus. After incubation for 24 hours in a humidity chamber at 95-100% relative humidity and +20° C., the infected plants are dried and sprayed with a spray mixture (0.02% active ingredient) prepared from a wettable powder formulation of the test compound. After the spray coating has dried, the treated plants are placed in the humidity chamber again.
Fungus infestation is evaluated 6 days after infection.

Plasmopara viticola [6] = assay: D-1a) residual-protective action against Plasmopara viticola on vines; conditions: Plasmopara viticola, 144 h; 200 ppm; test D-1a) residual-protective; vine seedlings; evaluated after 6 days; read-out: inhibit fungal infestations
Protocol: as §4, §2
Vine seedlings are sprayed at the 4- to 5-leaf stage with a spray mixture (0.02% active ingredient) prepared from a wettable powder formulation of the test compound. After 24 hours, the treated plants are infected with a sporangia suspension of the fungus. Fungus infestation is evaluated after incubation for 6 days at 95-100% relative humidity and +20° C.

Measured: inhibition at 200 ppm

C#CCOc1ccc(CCNC(=O)C(OCC=C)c2ccc(Br)cc2)cc1OC (stereo not drawn) [Compound E1.021, 2-allyloxy-2-(4-bromo-phenyl)-N-[2-(3-methoxy-4-prop-2-ynyloxy-phenyl)-ethyl]-acetamide]
80 to 100%: all assays above

C#CCOc1ccc(CCNC(=O)C(OCOCC)c2ccc(Cl)cc2)cc1OC (stereo not drawn) [Compound E1.018, 2-(4-chloro-phenyl)-2-ethoxymethoxy-N-[2-(3-methoxy-4-prop-2-ynyloxy-phenyl)-ethyl]-acetamide]
80 to 100%: Phytophthora [1] | Phytophthora [4] | Plasmopara viticola [5] | Plasmopara viticola [6]

C#CCOC(C(=O)NCCc1ccc(OCC#CCC)c(OC)c1)c1ccc(Cl)cc1 (stereo not drawn) [Compound E1.012, 2-(4-chloro-phenyl)-N-[2-(3-methoxy-4-pent-2-ynyloxy-phenyl)-ethyl]-2-prop-2-ynyloxy-acetamide]
80 to 100%: all assays above

C#CCOc1ccc(CCNC(=O)C(OC)c2ccc(Br)cc2)cc1OC (stereo not drawn) [Compound E1.019, 2-(4-bromo-phenyl)-2-methoxy-N-[2-(3-methoxy-4-prop-2-ynyloxy-phenyl)-ethyl]-acetamide]
80 to 100%: all assays above

C#CCOc1ccc(CCNC(=O)C(OCC#C)c2ccc(F)cc2)cc1OC (stereo not drawn) [Compound E1.033, 2-(4-fluoro-phenyl)-N-[2-(3-methoxy-4-prop-2-ynyloxy-phenyl)-ethyl]-2-prop-2-ynyloxy-acetamide]
80 to 100%: all assays above

C#CCOc1ccc(CCNC(=O)C(OC)c2ccc(Cl)cc2)cc1OC (stereo not drawn) [Compound E1.003, 2-(4-Chloro-phenyl)-2-methoxy-N-[2-(3-methoxy-4-prop-2-ynyloxy-phenyl)-ethyl]-acetamide]
80 to 100%: all assays above

C#CCOc1ccc(CCNC(=O)C(OCC#C)c2ccc(Cl)c(F)c2)cc1OC (stereo not drawn) [Compound E1.091, 2-(3-fluoro-4-chloro-phenyl)-N-[2-(3-methoxy-4-prop-2-ynyloxy-phenyl)-ethyl]-2-prop-2-ynyloxy-acetamide]
80 to 100%: all assays above

C#CCOc1ccc(CCNC(=O)C(OCC#C)c2ccc(CC)cc2)cc1OC (stereo not drawn) [Compound E1.053, 2-(4-ethyl-phenyl)-N-[2-(3-methoxy-4-prop-2-ynyloxy-phenyl)-ethyl]-2-prop-2-ynyloxy-acetamide]
80 to 100%: all assays above

C#CCOc1ccc(CCNC(=O)C(OCC#C)c2ccc(F)c(Cl)c2)cc1OC (stereo not drawn) [Compound E1.090, 2-(3-chloro-4-fluoro-phenyl)-N-[2-(3-methoxy-4-prop-2-ynyloxy-phenyl)-ethyl]-2-prop-2-ynyloxy-acetamide]
80 to 100%: all assays above

C#CCOc1ccc(CCNC(=O)C(OCC#CC)c2ccc(Cl)cc2)cc1OC (stereo not drawn) [Compound E1.014, 2-but-2-ynyloxy-2-(4-chloro-phenyl)-N-[2-(3-methoxy-4-prop-2-ynyloxy-phenyl)-ethyl]-acetamide]
80 to 100%: Phytophthora [1] | Phytophthora [4] | Plasmopara viticola [5] | Plasmopara viticola [6]

C#CCOc1ccc(CCNC(=O)C(OCC#C)c2ccc(F)c(F)c2)cc1OC (stereo not drawn) [Compound E1.085, 2-(3,4-difluoro-phenyl)-N-[2-(3-methoxy-4-prop-2-ynyloxy-phenyl)-ethyl]-2-prop-2-ynyloxy-acetamide]
80 to 100%: all assays above

C#CCOc1ccc(CCNC(=O)C(OCC#C)c2ccc(C(F)(F)F)cc2)cc1OC (stereo not drawn) [Compound E1.050, N-[2-(3-methoxy-4-prop-2-ynyloxy-phenyl)-ethyl]-2-prop-2-ynyloxy-2-(4-trifluoromethyl-phenyl)-acetamide]
80 to 100%: all assays above

C#CCOc1ccc(CCNC(=O)C(OCC)c2ccc(Cl)cc2)cc1OC (stereo not drawn) [Compound E1.004, 2-(4-chloro-phenyl)-2-ethoxy-N-[2-(3-methoxy-4-prop-2-ynyloxy-phenyl)-ethyl]-acetamide]
80 to 100%: all assays above

C#CCOc1ccc(CCNC(=O)C(OCC=C)c2ccc(Cl)cc2)cc1OC (stereo not drawn) [Compound E1.009, 2-allyloxy-2-(4-chloro-phenyl)-N-[2-(3-methoxy-4-prop-2-ynyloxy-phenyl)-ethyl]-acetamide]
80 to 100%: all assays above

C#CCOc1ccc(CCNC(=O)C(OCC#C)c2ccc(Cl)cc2)cc1OC (stereo not drawn) [Compound E1.011, 2-(4-chloro-phenyl)-N-[2-(3-methoxy-4-prop-2-ynyloxy-phenyl)-ethyl]-2-prop-2-ynyloxy-acetamide]
80 to 100%: all assays above

C#CCOC(C(=O)NCCc1ccc(OCC#CCC)c(OC)c1)c1ccc(Br)cc1 (stereo not drawn) [Compound E1.023, 2-(4-bromo-phenyl)-N-[2-(3-methoxy-4-pent-2-ynyloxy-phenyl)-ethyl]2-prop-2-ynyloxy-acetamide]
80 to 100%: Phytophthora [1] | Phytophthora [4] | Plasmopara viticola [5] | Plasmopara viticola [6]
